Measurements: patent US9708639B2, “Method for quantifying amino acids with pyrophosphate” (TOYAMA PREFECTURE, priority 2012, dated 2017)

How the values were obtained:
Design in all cases: key: +: Activity was detected; −: Activity was not detected
Thermotoga-derived LysRS = target: T1, Thermotoga-derived LysRS (Thermotoga maritima, UniProt Q9X231); assay: Qualitative test of AARS substrate specificity (molybdenum blue method); format: biochemical, Thermotoga maritima MSB8 strain; conditions: Tyr 1 mM, other amino acids 5 mM; hydroxylamine 1000 mM; LysRS 0.2 mg/ml (3 mU/ml); 30° C.
T1 construct: His tag (C); made in house; host or cells: Escherichia coli BL21 (DE3)
T1 sequence (Q9X231 1-502): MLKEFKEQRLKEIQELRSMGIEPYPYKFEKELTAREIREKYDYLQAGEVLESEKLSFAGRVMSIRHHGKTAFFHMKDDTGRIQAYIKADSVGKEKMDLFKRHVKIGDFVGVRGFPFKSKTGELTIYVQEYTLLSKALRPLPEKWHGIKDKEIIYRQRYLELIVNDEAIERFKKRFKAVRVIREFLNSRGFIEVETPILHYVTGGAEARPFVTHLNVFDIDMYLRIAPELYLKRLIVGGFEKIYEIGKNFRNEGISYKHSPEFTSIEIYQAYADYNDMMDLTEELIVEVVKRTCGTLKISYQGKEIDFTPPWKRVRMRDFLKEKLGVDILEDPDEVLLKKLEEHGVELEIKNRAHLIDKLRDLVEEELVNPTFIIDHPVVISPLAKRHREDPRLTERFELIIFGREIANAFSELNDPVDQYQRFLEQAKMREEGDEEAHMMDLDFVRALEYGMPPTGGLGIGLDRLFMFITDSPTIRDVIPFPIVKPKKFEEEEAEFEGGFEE
Protocol: (§1) A test sample containing an amino acid as the measurement subject and a reaction mixture for quantifying amino acid having the following composition were mixed. The mixture was left standing at 30° C. to allow the AARS reaction to advance. The mixture in a volume of 33 μl, 66 μl of water, and 1 μl of a 300 U/ml yeast pyrophosphatase solution were mixed, and left standing at room temperature for 20 minutes to allow the pyrophosphatase reaction to advance. Then, the reaction mixture was mixed with 100 μl of a color development solution A and 30 μl of a color developing solution B having the following compositions, then the mixture was left standing at room temperature for 5 minutes, and the absorbance was measured at 700 nm or 900 nm with a microplate reader.
(§2) Reaction mixture for quantifying amino acid: 20 mM Tris-HCl (pH 7.0), 5 mM MgCl2, 2 mM ATP, and AARS (concentrations are final concentrations obtained after mixing with test sample)
(§3) Color developing solution A: A solution obtained by mixing water and concentrated sulfuric acid at a ratio of 3:1 and dissolving (NH4)6Mo7O24.4H2O in the mixture at a concentration of 0.066 g/ml
(§4) Color developing solution B: A solution obtained by mixing water and concentrated sulfuric acid at a ratio of 10000:7 and dissolving FeSO4.7H2O in the mixture at a concentration of 145 mg/ml
(§5) Presence or absence of pyrophosphate generation was verified for the Thermotoga-derived CysRS, HisRS, LysRS, ProRS, SerRS, TrpRS, and TyrRS by using the AARS activity measurement method described in 9. and standard solutions of the various amino acids as test samples. AARSs were added to the reaction mixture at final concentrations of 0.3 (8 mU/ml), 0.1, 0.2 (3 mU/ml), 0.2, 0.1 (1 mU/ml), 0.1, 0.2 (20 mU/ml) mg/ml, respectively. The reaction mixtures were prepared so that the final concentration of Tyr was 1 mM, and the final concentrations of the other amino acids were 5 mM. As for the hydroxylamine concentration, it was added at a final concentration of 1000 mM for all the cases. Further, presence or absence of pyrophosphate production was also verified for the Thermus-derived MetRS and TyrRS by using the AARS activity measurement method described in 10. and standard solutions of the various amino acids as test samples. The reaction mixtures were prepared so that the final concentrations of the amino acids were 200 μM. Hydroxylamine was added at a final concentration of 400 mM.
(§6) Detection or no detection of the activity in the reaction mixtures containing a combination of each AARS and amino acid are shown in Table 2. The symbol + indicates detection of the activity, and − indicates no detection of the activity.

Thermotoga-derived TyrRS = target: T2, Thermotoga-derived TyrRS (Thermotoga maritima, UniProt Q9WYU8); assay: as above; format: biochemical, Thermotoga maritima MSB8 strain; conditions: Tyr 1 mM, other amino acids 5 mM; hydroxylamine 1000 mM; TyrRS 0.2 mg/ml (20 mU/ml); 30° C.
T2 construct: The amplification products were each inserted into pET-28a to obtain plasmids for expression of respective AARSs; His tag (N); made in house; host or cells: Escherichia coli BL21 (DE3)
T2 sequence (Q9WYU8 1-401): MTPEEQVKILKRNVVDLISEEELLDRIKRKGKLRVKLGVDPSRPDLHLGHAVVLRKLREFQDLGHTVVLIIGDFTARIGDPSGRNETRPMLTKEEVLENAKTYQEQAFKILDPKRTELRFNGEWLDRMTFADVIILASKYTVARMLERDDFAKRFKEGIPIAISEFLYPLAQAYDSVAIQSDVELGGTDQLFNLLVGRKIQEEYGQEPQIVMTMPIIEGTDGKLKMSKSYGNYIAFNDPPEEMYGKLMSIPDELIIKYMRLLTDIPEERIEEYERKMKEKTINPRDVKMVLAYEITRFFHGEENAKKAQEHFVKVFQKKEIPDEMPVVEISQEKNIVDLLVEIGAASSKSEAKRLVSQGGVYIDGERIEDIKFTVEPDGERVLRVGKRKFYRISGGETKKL
Protocol: as §1, §2, §3, §4, §5, §6

Thermus-derived MetRS = target: T3, Thermus-derived MetRS (Thermus thermophilus, UniProt P23395); assay: Qualitative test of AARS substrate specificity (AARS activity at 70° C.); format: biochemical, Thermus thermophilus HB8 strain; conditions: amino acids 200 μM, hydroxylamine 400 mM
T3 construct: host or cells: Escherichia coli BL21 (DE3)
T3 sequence (P23395 whole entry): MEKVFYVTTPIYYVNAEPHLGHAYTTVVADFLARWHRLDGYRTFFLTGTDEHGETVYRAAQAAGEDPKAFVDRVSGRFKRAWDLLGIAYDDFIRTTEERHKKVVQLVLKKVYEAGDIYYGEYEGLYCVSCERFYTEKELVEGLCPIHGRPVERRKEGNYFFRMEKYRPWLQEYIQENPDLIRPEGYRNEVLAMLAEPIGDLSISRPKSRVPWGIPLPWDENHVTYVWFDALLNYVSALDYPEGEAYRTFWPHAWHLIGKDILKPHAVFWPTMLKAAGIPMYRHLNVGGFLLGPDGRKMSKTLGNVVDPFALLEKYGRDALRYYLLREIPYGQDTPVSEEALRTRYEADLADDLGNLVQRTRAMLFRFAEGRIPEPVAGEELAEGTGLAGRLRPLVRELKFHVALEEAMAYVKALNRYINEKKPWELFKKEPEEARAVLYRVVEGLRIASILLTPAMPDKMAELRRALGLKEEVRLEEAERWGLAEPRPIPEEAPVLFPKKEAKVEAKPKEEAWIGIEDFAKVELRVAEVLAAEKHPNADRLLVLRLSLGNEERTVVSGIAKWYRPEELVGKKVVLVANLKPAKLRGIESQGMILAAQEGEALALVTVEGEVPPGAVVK
Protocol: (§7) A test sample containing an amino acid as the measurement subject and a reaction mixture for quantifying amino acid having the following composition were mixed. The mixture was left standing at 70° C. to allow the AARS reaction to advance. The mixture in a volume of 600 μl, 60 μl of a 1 M 2-mercaptoethanol solution, and 240 μl of the color development solution mentioned below were mixed, then the mixture was left standing at room temperature for 20 minutes, and the absorbance was measured at 580 nm in a cuvette having an optical path length of 1 cm.
(§8) Reaction mixture for quantifying amino acid: 20 mM HEPES-NaOH (pH 8.0), 5 mM MgCl2, 0.5 mM ATP, and AARS (concentrations are final concentrations obtained after mixing with test sample)
(§9) Color developing solution: A solution obtained by mixing water and concentrated sulfuric acid at a ratio of 6:1 and dissolving (NH4)6Mo7O24.4H2O in the mixture at a concentration of 0.025 g/ml
as §5, §6

Thermus-derived TyrRS = target: T4, Thermus-derived TyrRS (Thermus thermophilus, UniProt P83453); assay: as above; format: biochemical, Thermus thermophilus HB8 strain; conditions: amino acids 200 μM, hydroxylamine 400 mM
T4 construct: host or cells: Escherichia coli BL21 (DE3)
T4 sequence (P83453 whole entry): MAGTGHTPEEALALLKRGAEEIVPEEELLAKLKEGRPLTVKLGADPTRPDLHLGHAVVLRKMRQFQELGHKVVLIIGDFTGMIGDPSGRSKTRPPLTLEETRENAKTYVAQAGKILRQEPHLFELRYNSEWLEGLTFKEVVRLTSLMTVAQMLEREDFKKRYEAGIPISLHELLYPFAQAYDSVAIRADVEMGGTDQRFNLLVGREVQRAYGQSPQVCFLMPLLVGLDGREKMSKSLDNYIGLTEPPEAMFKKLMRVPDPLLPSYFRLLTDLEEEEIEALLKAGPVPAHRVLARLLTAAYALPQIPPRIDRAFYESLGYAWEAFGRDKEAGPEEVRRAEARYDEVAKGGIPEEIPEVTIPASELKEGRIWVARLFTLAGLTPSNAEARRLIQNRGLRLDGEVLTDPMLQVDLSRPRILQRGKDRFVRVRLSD
Protocol: as §7, §8, §9, §5, §6

SMILES	Detection of the activity (pyrophosphate generation), LysRS (Thermotoga-derived LysRS)	Detection of the activity (pyrophosphate generation), TyrRS (Thermotoga) (Thermotoga-derived TyrRS)	Detection of the activity (pyrophosphate production), MetRS (Thermus) (Thermus-derived MetRS)	Detection of the activity (pyrophosphate production), TyrRS (Thermus) (Thermus-derived TyrRS)
C[C@H](N)C(=O)O [Ala, L-alanine]	−	−	−	−
N=C(N)NCCC[C@H](N)C(=O)O [Arg, L-arginine]	−	−	−	−
NC(=O)C[C@H](N)C(=O)O [Asn, L-asparagine]	−	−	−	−
N[C@@H](CC(=O)O)C(=O)O [Asp, L-aspartic acid]	−	−	−	−
N[C@@H](CS)C(=O)O [Cys, L-cysteine]	−	−	−	−
NC(=O)CC[C@H](N)C(=O)O [Gln, L-glutamine]	−	−	−	−
N[C@@H](CCC(=O)O)C(=O)O [Glu, L-glutamic acid]	−	−	−	−
NCC(=O)O [Gly, glycine]	−	−	−	−
N[C@@H](Cc1c[nH]cn1)C(=O)O [His, L-histidine]	−	−	−	−
CC[C@H](C)[C@H](N)C(=O)O [Ile, L-isoleucine]	−	−	−	−
CC(C)C[C@H](N)C(=O)O [Leu, L-leucine]	−	−	−	−
NCCCC[C@H](N)C(=O)O [Lys, L-lysine]	+	−	−	−
CSCC[C@H](N)C(=O)O [Met, L-methionine]	−	−	+	−
N[C@@H](Cc1ccccc1)C(=O)O [Phe, L-phenylalanine]	−	−	−	−
O=C(O)[C@@H]1CCCN1 [Pro, L-proline]	−	−	−	−
N[C@@H](CO)C(=O)O [Ser, L-serine]	−	−	−	−
C[C@@H](O)[C@H](N)C(=O)O [Thr, L-threonine]	−	−	−	−
N[C@@H](Cc1c[nH]c2ccccc12)C(=O)O [Trp, L-tryptophan]	−	−	−	−
N[C@@H](Cc1ccc(O)cc1)C(=O)O [Tyr, L-tyrosine]	−	+	−	+
CC(C)[C@H](N)C(=O)O [Val, L-valine]	−	−	−	−
